The values below come from ChEMBL document CHEMBL3351547, “Ricinine: a pyridone alkaloid from Ricinus communis that activates the Wnt signaling pathway through casein kinase 1α” (Bioorg Med Chem, 2014).

The source made the active and inactive calls. No cut-off for these calls is given here.

For one data set, the system named is STF/293. Nature of the data set: Activation of TCF/beta-catenin transcription in human STF/293 cells assessed as increase in TOP activity by luciferase reporter gene assay. It is filed as cell-based. A general note: Reporter assays use an easily measured gene product as a stand-in for the process of interest.
Data set [1] relates to HEK293. Nature of the data set: Cytotoxicity against STF reporter expressing HEK293 cells at 10 to 30 uM after 24 hrs by fluorescein diacetate dye based fluorescence assay. In kind it is cell-based. The following applies: human, hek293, 24 h.
Data set [2] relates to HEK293. Nature of the data set: Activation of gene transcription in HEK293 cells assessed as increase in FOP at 10 to 30 uM activity by luciferase reporter gene assay. To be noted: Homo sapiens. In kind it is functional, cell-based.
The nature of data set [3]: Activation of Proto-oncogene protein Wnt/beta-catenin pathway in human STF/293 cells assessed as increase in cytosolic beta-catenin expression at 5 to 20 uM after 24 hrs. In kind it is cell-based.
Data set [4] in a line: Activation of Proto-oncogene protein Wnt/beta-catenin pathway in human STF/293 cells assessed as increase in nuclear beta-catenin expression at 5 to 20 uM after 24 hrs. It is filed as cell-based.
The target of data set [5] is Casein kinase I isoform alpha (Homo sapiens) (UniProt P48729). The experiment in a line: Inhibition of CK1alpha in human STF/293 cells assessed as reduction in beta-catenin Ser33 phosphorylation at 5 to 20 uM after 24 hrs. In kind it is cell-based.
Casein kinase I isoform alpha (Homo sapiens), sequence (P48729 2-337 limits assumed): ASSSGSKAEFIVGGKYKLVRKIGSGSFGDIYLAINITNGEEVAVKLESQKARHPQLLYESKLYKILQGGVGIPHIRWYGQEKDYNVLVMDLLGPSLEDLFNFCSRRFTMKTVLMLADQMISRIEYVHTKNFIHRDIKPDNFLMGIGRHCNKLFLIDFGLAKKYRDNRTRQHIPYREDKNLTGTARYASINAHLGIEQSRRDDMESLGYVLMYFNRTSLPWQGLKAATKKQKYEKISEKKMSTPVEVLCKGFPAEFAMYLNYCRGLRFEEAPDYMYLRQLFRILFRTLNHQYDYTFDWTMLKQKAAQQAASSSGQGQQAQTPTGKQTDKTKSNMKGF
For data set [6] the target is unchanged. Nature of the data set: Inhibition of CK1alpha in human STF/293 cells assessed as reduction in beta-catenin Ser37 phosphorylation at 5 to 20 uM after 24 hrs. In kind it is cell-based.
Data set [7] has the same target. The experiment in a line: Inhibition of CK1alpha in human STF/293 cells assessed as reduction in beta-catenin Ser45 phosphorylation at 5 to 20 uM after 24 hrs. It is filed as cell-based.
The target is the same in data set [8]. The experiment in a line: Inhibition of CK1alpha in human STF/293 cells assessed as reduction in beta-catenin Thr41 phosphorylation at 5 to 20 uM after 24 hrs. It is filed as cell-based.
Data set [9] has as its system HEK293. The experiment in a line: Effect on GSK3beta expression in STF reporter expressing HEK293 cells at 5 to 20 uM after 24 hrs. In kind it is functional, cell-based. To be noted: Homo sapiens.
The test system of data set [10] is HEK293. The experiment in a line: Effect on CK1alpha expression in STF reporter expressing HEK293 cells at 5 to 20 uM after 24 hrs. In kind it is functional, cell-based. The following applies: Homo sapiens.
Data set [11] addresses Casein kinase I isoform alpha (Homo sapiens) (UniProt P48729). The experiment in a line: Inhibition of CK1alpha in human STF/293 cells assessed as reduction in beta-catenin Ser45 phosphorylation at 20 uM in presence of 200 nM CK1alpha activator pyrvinium after 24 hrs. It is filed as cell-based.
Data set [12] has the same target. The experiment in a line: Inhibition of CK1alpha in human STF/293 cells assessed as reduction in beta-catenin Ser33/Ser37/Thr41 phosphorylation at 20 uM in presence of 200 nM CK1alpha activator pyrvinium after 24 hrs. It is filed as cell-based.
Data set [13] can be described thus: Activation of Proto-oncogene protein Wnt/beta-catenin pathway in human STF/293 cells assessed as increase in beta-catenin expression at 20 uM in presence of 200 nM CK1alpha activator pyrvinium after 24 hrs. It is filed as cell-based.
The nature of data set [14]: Activation of Proto-oncogene protein Wnt/beta-catenin pathway in zebra fish assessed as increase in beta-catenin expression at 100 to 300 uM treated from 1.75 hrs post fertilization to 24 hrs post fertilization. The following applies: Danio rerio.

For `CC[C@H](CC[C@@H](C)[C@H]1CC[C@H]2[C@@H]3CC=C4C[C@@H](O[C@@H]5O[C@H](CO)[C@@H](O)[C@H](O)[C@H]5O)CC[C@]4(C)[C@H]3CC[C@]12C)C(C)C` [SITOGLUSIDE], the results for the Activity result in the data set with STF/293 and in the data set with HEK293 [1] were “Dose-dependent effect” and “Non-toxic”, respectively.
Turning to `CC[C@H](CC[C@@H](C)[C@H]1CC[C@H]2[C@@H]3C(=O)C=C4C[C@@H](O)CC[C@]4(C)[C@H]3CC[C@]12C)C(C)C`, the Activity entry is “Dose-dependent effect” in the data set with STF/293 and “Non-toxic” in the data set with HEK293 [1]. Besides, in the data set on HEK293 [2], the outcome was inactive.
As for `C=C(C)[C@@H]1CC[C@]2(C)CC[C@]3(C)[C@H](CC[C@@H]4[C@@]5(C)CC[C@H](O)C(C)(C)[C@@H]5CC[C@]43C)[C@@H]12` [LUPEOL], the Activity entry in the data set on STF/293 was “Dose-dependent effect”; in the data set on HEK293 [1] it was “Non-toxic”.
As for `COc1ccn(C)c(=O)c1C#N` [RICININE], the Activity entry in the data set with STF/293 is “Dose-dependent effect”; in the data set with HEK293 [1], “Non-toxic”; in data set [14], “Dose-dependent effect”. Moreover, the result with HEK293 [2], in the data set with HEK293 [9] and in the data set with HEK293 [10] was inactive. In addition, the result in [3], in data set [4] and in data set [13] was Active. Moreover, the inhibition entry in data set [5], in data set [6], in data set [7], in data set [8], in [11] and in data set [12] was “Active” throughout.
